Patent publication US12509437B2, “Substituted thiophene carboxamides and derivatives thereof as microbicides” (Bayer Aktiengesellschaft, priority 2019, dated 2025)
Marks after values point to notes of the source that are not given here.

Legend:
[1] = tested on: Pseudomonas syringae pv. tomato; test: In vivo preventive test on Pseudomonas syringae pv. tomato (bacterial speck on tomato); conditions: sprayed 72 hours before inoculation, evaluated 5 or 6 days after inoculation, read-out: efficacy; for pest or weed control at 500 ppm: 500 ppm of active ingredient; for pest or weed control at 125 ppm: 125 ppm of active ingredient
Procedure: The tested active ingredients were prepared by homogenization in a mixture of acetone/Dimethyl sulfoxide/Tween®, and then diluted with water to obtain the desired active material concentration.
The young plants of tomato were treated by spraying the active ingredient prepared as described above. Control plants were treated only with an aqueous solution of acetone/Dimethyl sulfoxide/Tween®.
After 72 hours, the plants were contaminated by spraying the leaves with an aqueous bacteria suspension of Pseudomonas syringae pv. tomato. The contaminated tomato plants were incubated for 4 days in saturated atmosphere at 22° C. day/20° C. night−70% HR and then for 1 or 2 days at 22° C. day/20° C. night at 70-80% relative humidity.
The test was evaluated 5 or 6 days after the inoculation. 0% means an efficacy which corresponds to that of the control plants while an efficacy of 100% means that no disease was observed.

[2] = tested on: Xanthomonas campestris pv. campestris; test: In vivo preventive test on Xanthomonas campestris pv. campestris (black rot on cabbage); conditions: sprayed 72 hours before inoculation, evaluated 8 or 10 days after inoculation; for pest or weed control at 31 ppm / pest or weed control at 500 ppm / pest or weed control at 125 ppm: Xanthomonas campestris, read-out: efficacy; for pest or weed control at 500 ppm: 500 ppm of active ingredient; for pest or weed control at 125 ppm: 125 ppm of active ingredient
How it was run: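 Young cabbage plants sprayed preventively with compound formulated in acetone/DMSO/Tween and diluted in water, then inoculated 72 h later with a bacterial spray. Kept at 27° C, 95% relative humidity; disease scored after 8 or 10 days as % efficacy versus solvent-treated controls (0% = control, 100% = no disease).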

Peronospora parasitica = test: In vivo preventive test on Peronospora parasitica (Crucifer downy mildew) on cabbage; conditions: Hyaloperonospora parasitica, 120 h, sprayed 72 hours before inoculation, evaluated 5 days after inoculation, read-out: efficacy; for pest or weed control at 125 ppm: 125 ppm of active ingredient; for pest or weed control at 31 ppm: 31 ppm of active ingredient; for pest or weed control at 500 ppm: 500 ppm of active ingredient
How it was run: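 Preventive protocol: spore inoculation followed compound spraying by 72 h, with 5 days' incubation at 20 °C and 100% relative humidity. Disease was rated 5 days after inoculation against solvent-only plants (0% = control level, 100% = disease-free).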

[3] = tested on: Colletotrichum lindemuthianum; test: In vivo preventive test on Colletotrichum lindemuthianum (Anthracnose on bean); conditions: sprayed 72 hours before inoculation, evaluated 6 days after inoculation; for pest or weed control at 500 ppm: 500 ppm of active ingredient
How it was run: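 Young bean plants were sprayed with compound in acetone/DMSO/Tween diluted in water, then inoculated 72 h later with C. lindemuthianum spores. Incubation was 24 h at 20 °C/100% RH, then 5 days at 20 °C/90% RH. Efficacy scored 6 days post-inoculation: 0% equals solvent-treated control, 100% means no disease.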

Uromyces appendiculatus = test: In vivo preventive test on Uromyces appendiculatus (bean rust); conditions: 240 h, sprayed 72 hours before inoculation, evaluated 10 days after inoculation, read-out: efficacy; for pest or weed control at 31 ppm: 31 ppm of active ingredient; for pest or weed control at 500 ppm: 500 ppm of active ingredient; for pest or weed control at 125 ppm: 125 ppm of active ingredient
How it was run: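 Young bean plants sprayed with compound in acetone/DMSO/Tween diluted in water, then inoculated 72 h later with spore suspension. Incubated 24 h at 20° C., 100% RH, then 9 days at 20° C., 70-80% RH. Efficacy scored 10 days post-inoculation, 0% = untreated-control level, 100% = no disease.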

[4] = tested on: Pseudomonas syringae pv. tomato; test: Pseudomonas syringae pv. tomato in vitro cell test; assay type: cell-based; conditions: 20 ppm of active ingredient, 24 h of incubation, read-out: efficacy (inhibition of bacteria growth; no direct activity)
How it was run: (§1)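 Bacteria from liquid pre-culture diluted to set OD in LB broth and exposed to compounds dissolved in DMSO (final ≤1%). After 24 h, growth read by absorbance; inhibition derived relative to compound-free control wells.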

[5] = tested on: Colletotrichum lindemuthianum; test: Colletotrichum lindemuthianum in vitro cell test; assay type: cell-based; conditions: 144 h, 6 days incubation, read-out: efficacy (inhibition of fungal growth; no direct activity); for inhibition at 5 ppm: 5 ppm of active ingredient; for inhibition at 20 ppm: 20 ppm of active ingredient
How it was run: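 Inhibition of spore germination and mycelial growth in liquid culture, read spectrometrically after 6 days incubation. Compounds added from DMSO (final ≤1%) to spores in glucose/peptone/yeast-extract medium; absorbance compared with untreated controls.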

[6] = tested on: salicylate responsive promoter sequence of the PR1 (pathogenesis-related protein I) gene (AT2G14610); test: Induction of defense gene expression in Arabidopsis thaliana (PR1 promoter-GFP reporter plants); assay type: in vivo; conditions: 72 h, 3rd day after spraying, mock treated leaves set as 1.00, read-out: relative fluorescence value
How it was run: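 Transgenic A. thaliana carrying GFP under the salicylate-responsive PR1 promoter, grown five days, then sprayed with compounds. Whole-plant fluorescence imaged and quantified on day 3 post-spray, expressed relative to mock-treated leaf background set at 1.00.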

[7] = tested on: Xanthomonas campestris pv. campestris; test: Xanthomonas campestris pv. campestris in vitro cell test; assay type: cell-based; conditions: 24 h of incubation, read-out: efficacy (inhibition of bacteria growth; no direct activity); for inhibition at 5 ppm: 5 ppm of active ingredient; for inhibition at 20 ppm: 20 ppm of active ingredient
How it was run: as §1

[8] = LogP by HPLC on reversed phase columns (EEC directive 79/831 Annex V.A8); assay type: physicochemical; conditions: reversed phase HPLC columns; method [a]
How it was run: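 LogP derived from retention time, interpolated linearly between bracketing alkan-2-one standards (3 to 16 carbons). Where several values exist for one method, all are listed with "+"; UV spectra 200–400 nm at peak maxima gave lambda-max.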

Alternaria alternata = Alternaria alternata in vitro cell test; assay type: cell-based; conditions: 120 h, 5 days incubation, read-out: efficacy (inhibition of fungal growth; no direct activity); for inhibition at 5 ppm: 5 ppm of active ingredient; for inhibition at 20 ppm: 20 ppm of active ingredient
How it was run: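 A. alternata spores in glucose/peptone/yeast-extract liquid medium were exposed to DMSO-solubilized compound (final DMSO ≤1%). After 5 days incubation, mycelium growth read spectrometrically; inhibition derived from absorbance relative to fungicide-free control wells.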

[9] = Colletotrichum lindemuthianum, 144 h, 125 ppm of active ingredient, read-out: efficacy
[10] = Colletotrichum lindemuthianum, 144 h, read-out: efficacy

SMILES	pest or weed control at 500 ppm [1]	pest or weed control at 31 ppm ([2]; 31 ppm of active ingredient)	pest or weed control at 500 ppm [2]	pest or weed control at 125 ppm (Peronospora parasitica)	pest or weed control at 125 ppm [3, 9]	pest or weed control at 500 ppm [3, 10]	pest or weed control at 31 ppm (Uromyces appendiculatus)	pest or weed control at 500 ppm (Uromyces appendiculatus)	pest or weed control at 125 ppm (Uromyces appendiculatus)	pest or weed control at 31 ppm (Peronospora parasitica)	inhibition at 20 ppm [4]	pest or weed control at 500 ppm (Peronospora parasitica)	inhibition at 5 ppm [5]	fold induction at 75 ppm [6]	fold induction at 300 ppm [6]	inhibition at 5 ppm [7]	inhibition at 20 ppm [7]	chromatographic logP [8]	inhibition at 5 ppm (Alternaria alternata)	also measured
O=C(NC1(C(=O)O)CC1)c1cc(Br)c(Br)s1 [CMP1, reference compound]	0%	10%	0%																	efficacy ([2]; 31 ppm of active ingredient): 10* %
CCOC(=O)C1(NC(=O)c2cc(Br)c(Br)s2)CC1 [CMP2, reference compound]	< 40%	0%	0%	< 30%	0%	0%	< 40%	< 30%												
O=C(NC(C(=O)O)C1CC1)c1cc(Cl)c(Cl)s1 (centres unmarked) [CMP9, reference compound]		< 20%	0%		30%				< 40%											pest or weed control at 125 ppm [1]: 34%; efficacy ([3]; 125 ppm of active ingredient): 30* %
COC(=O)C(NC(=O)c1cc(Br)c(Br)s1)C1CC1 (centres unmarked) [CMP10, reference compound]		< 30%					0%			< 30%										pest or weed control at 125 ppm [1]: < 40%
COC(=O)CC[C@H](NC(=O)c1cc(Cl)c(Cl)s1)C(=O)OC [CMP12, reference compound]					< 20%															pest or weed control at 31 ppm ([1]; 31 ppm of active ingredient): 10%
CCOC(=O)C(COC)NC(=O)c1sc(Cl)c(Cl)c1C (centres unmarked) [I.044]		70 to 79%		90 to 100%	90 to 100%	90 to 100%	90 to 100%	90 to 100%	90 to 100%	90 to 100%	≤ 30%	90 to 100%	≤ 30%	> 2	> 2	≤ 30%	≤ 30%	3.37	≤ 30%	pest or weed control at 31 ppm ([3]; Colletotrichum lindemuthianum, 144 h, 31 ppm of active ingredient, read-out: efficacy): 80 to 89%; pest or weed control at 125 ppm [2]: 80 to 89%
COC(=O)[C@H](CCCNC(=N)N)NC(=O)c1sc(Cl)c(Cl)c1C [I.079]	70 to 79%	70 to 79%		90 to 100%				80 to 89%		80 to 89%	≤ 30%	90 to 100%	≤ 30%		> 2	≤ 30%	≤ 30%	1.68	≤ 30%	inhibition at 20 ppm [5]: ≤ 30%
COC(=O)C(CC(F)F)NC(=O)c1sc(Br)c(Br)c1C (centres unmarked) [I.108]	70 to 79%			70 to 79%	80 to 89%	90 to 100%		90 to 100%	90 to 100%	70 to 79%	≤ 30%	90 to 100%		> 2	> 2	≤ 30%	≤ 30%	3.33	≤ 30%	inhibition at 20 ppm (Alternaria alternata): ≤ 30%
CCSC(=O)C1(NC(=O)c2sc(Br)c(Br)c2C)CC1 [I.128]	70 to 79%			90 to 100%				90 to 100%				90 to 100%		> 2	> 2			3.81		
Cc1c(C(=O)NC2(C(=O)O)CCC2)sc(Br)c1Br [I.137]	70 to 79%		90 to 100%	90 to 100%		90 to 100%		90 to 100%	90 to 100%	70 to 79%		90 to 100%		> 2	> 2			2.63		pest or weed control at 125 ppm [2]: 90 to 100%
Cc1c(C(=O)NC2(C(=O)O)CCC2)sc(Cl)c1Cl [I.175]		70 to 79%		90 to 100%	70 to 79%				70 to 79%	90 to 100%	≤ 30%		≤ 30%	> 2	> 2	≤ 30%	≤ 30%	2.62	≤ 30%	inhibition at 20 ppm [5]: ≤ 30%; inhibition at 20 ppm (Alternaria alternata): ≤ 30%; pest or weed control at 125 ppm [2]: 80 to 89%
COC(=O)C(C)(C)NC(=O)c1sc(Cl)c(Cl)c1C [I.176]				90 to 100%			90 to 100%		90 to 100%	70 to 79%	≤ 30%		≤ 30%	> 2	> 2	≤ 30%	≤ 30%	3.16	≤ 30%	pest or weed control at 125 ppm [1]: 70 to 79%; inhibition at 20 ppm (Alternaria alternata): ≤ 30%
